From patent US20190161516A1, “PROTEASOME INHIBITORS” (University of Kentucky Research Foundation, priority 2017, published 2019)
Where two headings read alike, the source gives them in different places.

What was measured:
[1] = target: LMP2/β1i (Homo sapiens, UniProt P28065+P40306); test: Proteasome inhibitory activity, subunit-specific cell lysate IC50, LMP2; format: biochemical; design: Subunit-Specific Cell lysate IC50 (μM); endogenous in cells
[2] = test system: Chymotrypsin-like activity (β5/β5i); test: Proteasome inhibitory activity, subunit-specific cell lysate IC50, chymotrypsin-like activity; format: biochemical
[3] = test system: human peripheral blood mononuclear cells (PBMCs); conditions: previous studies; cited from earlier work
[4] = test system: BV-2 cells; test: LPS-induced IL-6 production in BV-2 microglial cell line; format: cell-based; conditions: FIG. 14
Excerpt: To test this, we used BV-2 cell line, a microglial cell line, known to upregulate cytokines in response to LPS treatment. […] We suspect these contradictory results are due to cell type-specific role of LMP2, indicating a distinct role of LMP2 in microglia inflammatory response.

[5] = read-out: Subunit-Specific Cell lysate IC50, LMP2 (β1i)
[6] = Subunit-Specific Cell lysate IC50, LMP2 (β1i)

Row | IC50 [1, 5] | IC50 [2] | SMILES | IC50 [1, 6] | LPS-induced cytokine production including IL-6 [3] | IL-6 production induced by LPS [4]
1 | 130 nM | > 10000 nM | CC(C)C[C@H](NC(=O)[C@H](Cc1ccccc1)NC(=O)[C@@H]1CCCN1C(=O)CNC(=O)C(F)(F)F)C(=O)[C@@]1(C)CO1 [Analogue 25] |  |  | 
2 | 1200 nM | > 10000 nM | CC(C)C[C@H](NC(=O)[C@H](Cc1ccccc1)NC(=O)[C@@H]1CCCN1C(=O)CN1CCOCC1)C(=O)[C@@]1(C)CO1 [Analogue 1] |  |  | 
3 | 60 nM |  | CC(C)C[C@H](NC(=O)[C@H](Cc1ccc2ccccc2c1)NC(=O)[C@@H]1CCCN1C(=O)CNC(=O)c1cnccn1)C(=O)[C@@]1(C)CO1 [Analogue 23] |  |  | 
4 | 30 nM | > 10000 nM | CC(=O)NCC(=O)N1CCC[C@H]1C(=O)N[C@@H](Cc1ccc2ccccc2c1)C(=O)N[C@@H](CC(C)C)C(=O)[C@@]1(C)CO1 [Analogue 7] |  |  | 
5 | 90 nM | > 10000 nM | CC(=O)NCC(=O)N1CCC[C@H]1C(=O)N[C@@H](Cc1ccc(NC(=O)CN2CCOCC2)cc1)C(=O)N[C@@H](CC(C)C)C(=O)[C@@]1(C)CO1 [Analogue 29] |  |  | 
6 | 130 nM |  | Cc1ncc(C(=O)NCC(=O)N2CCC[C@H]2C(=O)N[C@@H](Cc2ccc(-c3ccccc3)cc2)C(=O)N[C@@H](CC(C)C)C(=O)[C@@]2(C)CO2)s1 [Analogue 24] |  |  | 
7 | 120 nM |  | CC(=O)NCC(=O)N1CCC[C@H]1C(=O)N[C@@H](Cc1ccncc1)C(=O)N[C@@H](CC(C)C)C(=O)[C@@]1(C)CO1 [Analogue 30] |  |  | 
8 | 20 nM | 5000 nM | CC(=O)NCC(=O)N1CCC[C@H]1C(=O)N[C@@H](Cc1ccc(-c2ccccc2)cc1)C(=O)N[C@@H](CC(C)C)C(=O)[C@@]1(C)CO1 [Analogue 8] |  |  | 
9 |  |  | COc1ccc(C[C@H](NC(=O)[C@H](C)NC(=O)CN2CCOCC2)C(=O)N[C@@H](Cc2ccccc2)C(=O)[C@@]2(C)CO2)cc1 [ONX-0914] |  | almost completely blocked | less effective in blocking IL-6 production
10 | 100 nM | > 10000 nM | Cc1ncc(C(=O)NCC(=O)N2CCC[C@H]2C(=O)N[C@@H](Cc2ccccc2)C(=O)N[C@@H](CC(C)C)C(=O)[C@@]2(C)CO2)s1 [Analogue 15] |  |  | 
11 | 2200 nM | 7000 nM | CC(=O)NCC(=O)N1CCC[C@H]1C(=O)N[C@@H](Cc1ccc2ccccc2c1)C(=O)N[C@@H](CC(C)C)C(=O)[C@@]1(CO)CO1 [Analogue 6] |  |  | 
12 | 110 nM | > 10000 nM | CC(C)C[C@H](NC(=O)[C@H](Cc1ccccc1)NC(=O)[C@@H]1CCCN1C(=O)CNC(=O)S(C)(=O)=O)C(=O)[C@@]1(C)CO1 [Analogue 27] |  |  | 
13 | 60 nM | > 10000 nM | CC(=O)NCC(=O)N1CCC[C@H]1C(=O)N[C@@H](Cc1ccccc1)C(=O)N[C@@H](CC(C)C)C(=O)[C@@]1(CO)CO1 [Analogue 11] |  |  | 
14 | 70 nM | > 10000 nM | CC(=O)NCC(=O)N1CC(F)(F)C[C@H]1C(=O)N[C@@H](Cc1ccccc1)C(=O)N[C@@H](CC(C)C)C(=O)[C@@]1(C)CO1 [Analogue 12] |  |  | 
15 | 30 nM | > 10000 nM | CC(=O)NCC(=O)N1CCC[C@H]1C(=O)N[C@@H](Cc1cccc2ccccc12)C(=O)N[C@@H](CC(C)C)C(=O)[C@@]1(C)CO1 [Analogue 10] |  |  | 
16 | 90 nM | 5000 nM | CC(C)C[C@H](NC(=O)[C@H](Cc1ccc(-c2ccccc2)cc1)NC(=O)[C@@H]1CCCN1C(=O)CNC(=O)c1cnccn1)C(=O)[C@@]1(C)CO1 [Analogue 22] |  |  | 
17 | 650 nM | > 10000 nM | CC(=O)NCC(=O)N1CCC[C@H]1C(=O)N[C@@H](Cc1ccc(-c2ccccc2)cc1)C(=O)N[C@@H](CC(C)C)C(=O)[C@@]1(CO)CO1 [Analogue 4] |  |  | 
18 | 130 nM | > 10000 nM | CCc1ccc(C[C@H](NC(=O)[C@@H]2CCCN2C(=O)CNC(C)=O)C(=O)N[C@@H](CC(C)C)C(=O)[C@@]2(C)CO2)cc1 [Analogue 9] |  |  | 
19 | 140 nM | > 10000 nM | CC(C)C[C@H](NC(=O)[C@H](Cc1ccccc1)NC(=O)[C@@H]1CCCN1C(=O)CNC(=O)c1cccc(O)n1)C(=O)[C@@]1(C)CO1 [Analogue 17] |  |  | 
20 | 90 nM |  | Cc1ncc(C(=O)NCC(=O)N2CCC[C@H]2C(=O)N[C@@H](Cc2ccc3ccccc3c2)C(=O)N[C@@H](CC(C)C)C(=O)[C@@]2(C)CO2)s1 [Analogue 26] |  |  | 
21 | 100 nM |  | CC(C)C[C@H](NC(=O)[C@H](CCc1ccccc1)NC(=O)[C@@H]1CCCN1C(=O)CNC(=O)c1cnccn1)C(=O)[C@@]1(C)CO1 [Analogue 20] |  |  | 
22 | 1000 nM | > 10000 nM | CC(C)C[C@H](NC(=O)[C@H](Cc1ccccc1)NC(=O)[C@@H]1CCCN1C(=O)c1cccc(O)n1)C(=O)[C@@]1(C)CO1 [Analogue 2] |  |  | 
23 | 1000 nM | > 10000 nM | CC(C)C[C@H](NC(=O)[C@H](Cc1ccccc1)NC(=O)[C@@H]1CCCN1C(=O)CN1CCOCC1=O)C(=O)[C@@]1(C)CO1 [Analogue 3] |  |  | 

Row | SMILES | IC50 [1, 5] | IC50 [2] | IC50 [1, 6] | LPS-induced cytokine production including IL-6 [3] | IL-6 production induced by LPS [4]
24 | CC(=O)NCC(=O)N1CCC[C@H]1C(=O)N[C@@H](Cc1ccc2ccccc2c1)C(=O)N[C@@H](CC(C)C)C(=O)[C@@]1(CO[Si](c2ccccc2)(c2ccccc2)C(C)(C)C)CO1 [Analogue 5] |  | > 10000 nM | > 10000 nM |  | 
25 | CC(=O)NCC(=O)N1CCC[C@H]1C(=O)N[C@@H](CCc1ccccc1)C(=O)N[C@@H](CC(C)C)C(=O)[C@@]1(C)CO1 [Analogue 13] | 60 nM | > 10000 nM |  |  | 
26 | CC(=O)NCC(=O)N1CCC[C@H]1C(=O)N[C@@H](Cc1ccc(NC(=O)c2ccccc2)cc1)C(=O)N[C@@H](CC(C)C)C(=O)[C@@]1(C)CO1 [Analogue 18] |  | 5000 nM | 70 nM |  | 
27 | CC(=O)NCC(=O)N1CCC[C@H]1C(=O)N[C@@H](Cc1ccc(NC(=O)c2cnccn2)cc1)C(=O)N[C@@H](CC(C)C)C(=O)[C@@]1(C)CO1 [Analogue 28] |  | > 10000 nM | 30 nM |  | 
28 | Cc1ncc(C(=O)NCC(=O)N2CCC[C@H]2C(=O)N[C@@H](CCc2ccccc2)C(=O)N[C@@H](CC(C)C)C(=O)[C@@]2(C)CO2)s1 [Analogue 19] | 180 nM | > 10000 nM |  |  | 
29 | CC(=O)NCC(=O)N1CCCCC1C(=O)N[C@@H](Cc1ccccc1)C(=O)N[C@@H](CC(C)C)C(=O)[C@@]1(C)CO1 (stereo partly shown) [Analogue 14] | 120 nM | 1000 nM |  |  | 
30 | Cc1cc(C(=O)NCC(=O)N2CCC[C@H]2C(=O)N[C@@H](CCc2ccccc2)C(=O)N[C@@H](CC(C)C)C(=O)[C@@]2(C)CO2)no1 [Analogue 21] | 130 nM | > 10000 nM |  |  | 
